Data on 31 compounds can be found in ChEMBL document CHEMBL2021775, “Discovery of flavonoid derivatives as anti-HCV agents via pharmacophore search combining molecular docking strategy” (Eur J Med Chem, 2012).

Data set [1] concerns Hepatitis C virus. In words: Antiviral activity against HCV JFH-1 J399EM infected in Human Huh7.5.1 cells assessed as suppression of viral replication at 50 uM after 72 hrs by EGFP assay. The data set is classed as functional. As to conditions: for inhibition: Hepacivirus hominis, Huh-7; for inhibition at 50 µM: Huh-7, 72 h.
A short description of data set [2]: Cytotoxicity against human Huh7.5.1 cells by MTT assay. The data set is classed as cell-based, Huh-7. (In general: Formazan colour is commonly taken as a measure of viable cells.)
Data set [3] relates to Hepatitis C virus. As to the kind of experiment: Antiviral activity against HCV JFH-1 J399EM infected in Human Huh7.5.1 cells assessed as suppression of viral replication after 72 hrs by EGFP assay. As to conditions: Huh-7, 72 h. Format: functional, organism-based, Hepacivirus hominis.
Data set [4] relates to Hepatitis C virus. In words: Inhibition of HCV 1b NS5B polymerase at 100 uM. Further details: species or system Hepatitis C virus subtype 1b.
The test system of data set [5] is Hepatitis C virus. In words: Inhibition of HCV 1b NS5B polymerase. Further details: species or system Hepatitis C virus subtype 1b.
For data set [6], the system named is Hepatitis C virus. As to the kind of experiment: Antiviral activity against HCV genotype 2a […] in Human Huh7.5.1 replicon cells assessed as suppression of viral replication after 72 hrs by luciferase reporter gene assay. As to conditions: Huh-7, 72 h. The data set is classed as functional, organism-based, Hepacivirus hominis.

pEC50, pIC50: −log10 of the molar value. Calls of active or inactive are those of the source. The calls are words filed in the database; no cut-off is given here.

`O=c1cc(-c2ccc(O)c(O)c2)oc2cc(O)c([C@@H]3O[C@H](CO)[C@@H](O)[C@H](O)[C@H]3O)c(O)c12` [ISOORIENTIN]: the inhibition (in general, the drop in the measured response relative to a control, in per cent) in data set [1] is “inactive”. In addition, the CC50 (commonly the concentration that lowers cell viability or growth by half) in data set [2] was greater than 50 µM.

On to `O=c1c(O)c(-c2ccccc2)oc2cc(O)cc(O)c12` [GALANGIN], for which the inhibition at 50 µM in data set [1] came to 46.9%. Moreover, the CC50 in data set [2] is greater than 50 µM.

On to `COc1cc(-c2oc3cc(O)cc(O)c3c(=O)c2O)cc(OC)c1O` [SYRINGETIN], for which the cytotoxic concentration (CC50) in data set [2] was greater than 50 µM. In addition, the pEC50 – broadly, −log10 of the EC50, conventionally taken in molar units – in data set [3] is 4.81.

For `O=c1cc(-c2ccc(O)c(O)c2)oc2cc(O[C@@H]3O[C@H](CO)[C@@H](O)[C@H](O)[C@H]3O)cc(O)c12` [GALUTEOLIN], in data set [1], the inhibition entry is “inactive”. The compound further showed a CC50 in data set [2] greater than 50 µM.

Consider `O=c1cc(-c2ccccc2)oc2cc(O)cc(O)c12` [CHRYSIN], for which the inhibition at 50 µM in data set [1] is 51%. In addition, the CC50 in data set [2] was greater than 50 µM. In data set [4], this compound yielded an inhibition at 100 µM of 30%.

In turn, `O=c1c(-c2ccc(O)cc2)coc2cc(O)cc(O)c12` [GENISTEIN] displayed a CC50 in data set [2] greater than 50 µM. Besides, in data set [3], the negative logarithm of the EC50 (pEC50) was 4.84.

As to `O=c1c(O)c(-c2ccc(O)cc2)oc2cc(O)cc(O)c12` [KAEMPFEROL], the inhibition at 50 µM in data set [1] was 51.9%. Besides, the cytotoxic concentration (CC50) in data set [2] was greater than 50 µM.

Turning to `O=C(/C=C/c1ccc(O)cc1)c1ccc(O)cc1O` [ISOLIQUIRITIGENIN], in data set [2], the half-maximal cytotoxic concentration (CC50) is greater than 50 µM. Moreover, the pEC50 in data set [3] is 4.44.

As to `O=c1c(O)c(-c2ccc(O)c(O)c2)oc2c(O)c(O)cc(O)c12` [GOSSYPETIN], the 50% cytotoxic concentration (CC50) in data set [2] was greater than 50 µM. For the same compound, in data set [3], the negative-log EC50 (pEC50) is 4.33.

Take `O=c1cc(-c2cc(O)c(O)c(O)c2)oc2cc(O)ccc12`: in data set [2], the 50% cytotoxic concentration (CC50) was greater than 50 µM. The negative logarithm of the EC50 (pEC50) in data set [3] is 4.41.

On to `O=c1cc(-c2ccc(O)c(O)c2)oc2cc(O)cc(O)c12` [LUTEOLIN], for which the pIC50 – broadly, the IC50 on a negative log10 scale, so that one unit is a factor of ten – in data set [5] was 5.95. In data set [2], this compound showed a CC50 greater than 50 µM. Besides, the pEC50 was 5.33 in data set [3] and 5.18 in data set [6].

The compound `COc1c(O)cc2oc(-c3ccc(O)cc3)cc(=O)c2c1O` [HISPIDULIN] returned a cytotoxic concentration (CC50) in data set [2] greater than 50 µM. Also, the negative logarithm of the EC50 (pEC50) in data set [3] was 4.44.

`O=c1c(O)c(-c2ccc(O)cc2)oc2cccc(O)c12` registered a CC50 in data set [2] greater than 50 µM. Besides, the pEC50 in data set [3] is 4.90.

Regarding `O=c1c(O)c(-c2ccccc2)oc2cccc(O)c12`, the inhibition at 50 µM in data set [1] stood at 83.7%. The compound also displayed a 50% cytotoxic concentration (CC50) in data set [2] greater than 50 µM.

For `O=c1cc(-c2ccc(O)c(-c3c(O)cc(O)c4c(=O)cc(-c5ccc(O)cc5)oc34)c2)oc2cc(O)cc(O)c12` [AMENTOFLAVONE], the inhibition result in data set [1] is “inactive”. Also, the 50% cytotoxic concentration (CC50) in data set [2] is greater than 50 µM.

Take `O=c1c(O)c(-c2cc(O)c(O)cc2O)oc2ccc(O)cc12`: the inhibition at 50 µM in data set [1] came to 31.1%. The same compound displayed a CC50 in data set [2] greater than 50 µM.

`O=c1cc(-c2ccc(O)cc2)oc2cc(O)cc(O)c12` [APIGENIN] gave a CC50 in data set [2] greater than 50 µM. The results for the pEC50 in data set [3] and in data set [6] were 5.10 and 4.92, respectively.

`COc1cc(-c2oc3cc(O)cc(O)c3c(=O)c2O)ccc1O` [ISORHAMNETIN]: in data set [1], the inhibition at 50 µM worked out at 47.3%. Further, the CC50 in data set [2] was greater than 50 µM.

As to `O=c1c(O)c(-c2ccc(O)c(O)c2)oc2cc(O)cc(O)c12` [QUERCETIN], the CC50 in data set [2] is greater than 50 µM. For the same compound, the pEC50 in data set [3] was 4.70.

For the compound `O=c1c(O)c(-c2ccc(O)c(O)c2)oc2cc(O)ccc12` [FISETIN], in data set [1], the inhibition at 50 µM was 26.4%. This compound also showed a CC50 in data set [2] greater than 50 µM.

In data set [2], `COc1c(O)cc2oc(-c3ccc(O)c(O)c3)cc(=O)c2c1O` [EUPAFOLIN] registered a half-maximal cytotoxic concentration (CC50) greater than 50 µM. In addition, the pEC50 in data set [3] was 4.48.

Regarding `O=c1cc(-c2ccccc2O)oc2c(O)c(O)ccc12`, the inhibition at 50 µM in data set [1] turned out to be 51.9%. The same compound came in with a 50% cytotoxic concentration (CC50) in data set [2] greater than 50 µM.

In the case of `O=c1c(O)c(-c2ccc(O)cc2O)oc2cc(O)cc(O)c12` [MORIN], in data set [1], the inhibition at 50 µM turned out to be 31.1%. Further, the 50% cytotoxic concentration (CC50) in data set [2] is greater than 50 µM.

On to `O=c1c(O)c(-c2cccc(O)c2O)oc2ccc(O)cc12`, for which the inhibition result in data set [1] was “inactive”. The compound also returned a CC50 in data set [2] greater than 50 µM.

The compound `O=c1c(O)c(-c2cc(O)c(O)c(O)c2)oc2cc(O)cc(O)c12` [MYRICETIN] registered a CC50 in data set [2] greater than 50 µM. For the same compound, in data set [3], the negative-log EC50 (pEC50) is 4.33.

In data set [2], `O=C1c2cccc(O)c2C(=O)c2c(O)cc(CO)cc21` [ALOE-EMODIN] had a CC50 greater than 50 µM. Further, the negative logarithm of the EC50 (pEC50) in data set [3] was 4.68.

Regarding `O=c1c(O[C@H]2O[C@@H](CO)[C@@H](O)[C@@H](O)[C@@H]2O)c(-c2ccc(O)c(O)c2)oc2cc(O)cc(O)c12`, in data set [1], the inhibition entry is “inactive”. In data set [2], this compound displayed a CC50 greater than 50 µM.

`COc1ccc(-c2oc3cc(O)cc(O)c3c(=O)c2O)cc1` [KAEMPFERIDE]: the inhibition at 50 µM in data set [1] amounted to 27.6%. Further, the cytotoxic concentration (CC50) in data set [2] is greater than 50 µM.

In data set [2], `O=c1cc(-c2ccccc2)oc2cc(O)c(O)c(O)c12` [BAICALEIN] gave a half-maximal cytotoxic concentration (CC50) greater than 50 µM. In addition, the negative-log EC50 (pEC50) in data set [3] was 4.47.

Compound `O=c1cc(-c2cc(O)c(O)c(O)c2)oc2cc(O)cc(O)c12` [TRICETIN] gave a cytotoxic concentration (CC50) in data set [2] greater than 50 µM. Besides, the pEC50 in data set [3] was 4.49.

`O=c1cc(-c2ccc(O)c(O)c2)oc2c(O)c(O)ccc12` returned a CC50 in data set [2] greater than 50 µM. For the same compound, in data set [3], the pEC50 is 4.63.
